# Patent publication US12338261B2 (SUMITOMO PHARMA ONCOLOGY, INC., priority 2015, dated 2025)
# Values joined by “and” are separate entries in the source; they are usually repeats but may differ in a detail not shown here. Identical values can stand only once. Like-named read-outs stand apart in the source and are kept apart here.
# How the values were obtained:
# [1] = tested on: MV4-11 mouse xenograft model of acute myeloid leukemia (AML); experiment: Mouse xenograft efficacy study; type: in vivo; details: MV4-11 xenograft
# Protocol: The in vivo activity of compound IB′ was determined in a MV4-11 mouse xenograft model of acute myeloid leukemia (AML). Injection of 8×10^6 MV4-11 cells/mouse was followed by growth of tumors to approximately 100 mm^3. After tumors reached the appropriate size, mice were randomized into the following treatment groups: Vehicle, compound IB′ (7.5 mg/kg, qdx5x3), compound IB′ (2.5 mg/kg, qdx5x3), compound IB′ (0.1 mg/kg, qdx5x3) and […]. Vehicle and compound IB′ were administered orally, except in the last arm of compound IB′ (7.5 mg/kg, q7dx3), which was dosed intravenously.
# [2] = tested on: MCL-1 protein expression; experiment: Mouse xenograft pharmacodynamic study; type: in vivo; details: MV4-11 xenograft tumors, 48 hours post-treatment
# Protocol: The in vivo pharmacodynamic activity of compound IB′ was determined in a MV4-11 mouse xenograft model of AML (FIG. 6A-B). Injection of 8×10^6 cells/mouse was followed by growth of tumors to approximately 100 mm^3. After tumors reached an appropriate size, mice were randomized into the following treatment groups: Vehicle, compound IB′ (2.5 mg/kg), compound IB′ (0.5 mg/kg), compound IB′ (0.1 mg/kg), compound IB′ (0.02 mg/kg). Mice were administered a single treatment dose and tumors were harvested 48 hours post-treatment. MCL-1 protein levels were assessed on harvested tumors using standard polyacrylamide gel electrophoresis and immunoblotting technique (FIG. 6A).
# [3] = Maximum tolerated acute dose in rats
# Protocol: Acute (i.e. single dose) toxicology studies were performed in rats. Acute studies were performed in female Sprague Dawley rats using three animals per treatment group. […] Body weight measurements following oral dosing (see FIG. 4A), along with mortality, clinical observations, food consumption (see FIG. 4B), and complete blood counts (CBCs; see Table 12) were used to determine the maximum tolerated acute dose (MTDacute).
# [4] = type: in vitro ADME, mouse; details: mouse, plasma
# Protocol: (§1) The plasma stability of compound IB′ was determined using plasma from four species. Results for mouse, rat, dog and human are shown in Tables 5, 6, 7 and 8 respectively. Alvocidib and flumazenil were used as controls. In mouse, rat and human plasma, compound IB′ maintained 100% stability after 5 hour incubation. In dog plasma, approximately 90% of compound IB′ remained after 5 hours.
# [5] = Dog plasma stability; type: in vitro ADME; details: dog plasma
# Protocol: as §1
# [6] = Pharmacokinetics in Sprague Dawley rats; type: in vivo, rat; details: SD rats; for concentration at 0.5 h: 0.50 hr
# Protocol: Plasma samples were taken at 8 time-points (IV) or 7 time points (oral) over a 24 hour period following a single dose of compound IB′ (3 animals per group). […] The plasma samples were also analyzed for the presence of compound IB′.
# [7] = type: in vitro ADME, rat; details: rat, plasma
# Protocol: as §1
# [8] = Human plasma stability; type: in vitro ADME; details: human plasma
# Protocol: The plasma stability of compound IB′ was determined using plasma from four species.
# [9] = CD-1, mouse, in vivo
# [10] = for MTDacute: female SHO SCID mice; for Body weight loss, peak: surviving mice
# Protocol: Acute studies were performed in female SHO SCID mice using three animals per treatment group. […] Body weight measurements following oral dosing (FIGS. 2A-B) and intravenous (IV) dosing (FIG. 2C-D) were used, along with mortality and clinical observations to determine the maximum tolerated acute dose (MTDacute).
# [11] = physchem; details: kinetic from dmso stock
# [12] = rats, single oral dose 4.5 mg/kg
# [13] = rats, single oral dose 18 mg/kg
# [14] = male, Sprague Dawley, rat, plasma, IV 1 mg/kg, read-out: Plasma concentration of compound IB′ itself
# [15] = male, Sprague Dawley, rat, plasma, PO 10 mg/kg, read-out: Plasma concentration of compound IB′ itself
smiles,measurement,setting,value
"CN1CC[C@H](c2c(OP(=O)(O)O)cc(O)c3c(=O)cc(-c4ccccc4Cl)oc23)[C@H](O)C1 [Compound IB′, 2-(2-chlorophenyl)-5-hydroxy-8-(3-hydroxy-1-methylpiperidin-4-yl)-4-oxo-4H-chromen-7-yl dihydrogen phosphate]",Tumor Growth Inhibition,"[1]; 2.5 mg/kg, qdx5x3, orally",12%
same,Tumor Growth Inhibition,"[1]; 7.5 mg/kg, q7dx3, intravenously",74%
same,Tumor Growth Inhibition,"[1]; 7.5 mg/kg, qdx5x3, orally",69%
same,Reduction of MCL-1 Expression,[2]; single dose 0.02 mg/kg,0.0%
same,Reduction of MCL-1 Expression,[2]; single dose 0.1 mg/kg,46%
same,Reduction of MCL-1 Expression,[2]; single dose 0.5 mg/kg,61%
same,Reduction of MCL-1 Expression,[2]; single dose 2.5 mg/kg,54%
same,MTDacute,"[3]; female Sprague Dawley rats, single oral dose",18 mg/kg
same,NOAEL,"[3]; female, Sprague Dawley, rat, in vivo, po",18 mg/kg
same,HCT,[3]; [12],49.9%
same,MCH,[3]; [12],19.7 pg
same,MCHC,[3]; [12],35.9 g/dL
same,MCV,[3]; [12],54.8 fL
same,PLT,[3]; [12],37.1 10^3/μL
same,RBC,[3]; [12],9.1 10^6/μL
same,RDWA,[3]; [12],16.2 fL
same,WBC,[3]; [12],17.9 10^3/μL
same,HCT,"[3]; rats, single oral dose 9 mg/kg",42.7%
same,MCH,"[3]; rats, single oral dose 9 mg/kg",19.5 pg
same,MCHC,"[3]; rats, single oral dose 9 mg/kg",36.6 g/dL
same,MCV,"[3]; rats, single oral dose 9 mg/kg",53.3 fL
same,PLT,"[3]; rats, single oral dose 9 mg/kg",35.0 10^3/μL
same,RBC,"[3]; rats, single oral dose 9 mg/kg",8.0 10^6/μL
same,RDWA,"[3]; rats, single oral dose 9 mg/kg",15.9 fL
same,WBC,"[3]; rats, single oral dose 9 mg/kg",15.6 10^3/μL
same,platelet counts versus normal range,"[3]; rats, single oral dose 9 mg/kg",outside the normal range
same,HCT,[3]; [13],31.2%
same,MCH,[3]; [13],19.6 pg
same,MCHC,[3]; [13],36.6 g/dL
same,MCV,[3]; [13],53.5 fL
same,PLT,[3]; [13],33.9 10^3/μL
same,RBC,[3]; [13],5.9 10^6/μL
same,RDWA,[3]; [13],15.7 fL
same,WBC,[3]; [13],11.4 10^3/μL
same,abnormal food consumption patterns,[3]; [13],not observed
same,red and white blood cell counts,[3]; [13],Slightly reduced
same,Body weight loss,"[3]; rats, single oral dose 36 mg/kg, preceding death",13.1%
same,overt toxicity,"[3]; rats, single oral dose 18, 9, or 4.5 mg/kg","No overt toxicity, including body weight change or diarrhea, was observed"
same,% Remaining,[4]; 0 h,100.00%
same,% Remaining,[4]; 0.5 h,88.48%
same,% Remaining,[4]; 1 h,89.83%
same,% Remaining,[4]; 2 h,97.71%
same,% Remaining,[4]; 3 h,99.61%
same,% Remaining,[4]; 4 h,100.46%
same,% Remaining,[5]; 0 hours,100.00%
same,% Remaining,[5]; 0.5 hours,83.66%
same,% Remaining,[5]; 1 hour,94.53%
same,% Remaining,[5]; 2 hours,112.61%
same,% Remaining,[5]; 3 hours,99.16%
same,% Remaining,[5]; 4 hours,93.91%
same,Plasma concentration of compound IB′ itself,"[6]; IV 1 mg/kg, 2.00 hr, 1 mg/kg",below quantitative levels and BQL
same,Plasma concentration of compound IB′ itself,"[6]; IV 1 mg/kg, 4.00 hr",BQL
same,Plasma concentration of compound IB′ itself,"[6]; IV 1 mg/kg, 6.00 hr",BQL
same,Plasma concentration of compound IB′ itself,"[6]; IV 1 mg/kg, 8.00 hr",BQL
same,Plasma concentration of compound IB′ itself,"[6]; IV 1 mg/kg, 24.00 hr",BQL
same,Plasma concentration of compound IB′ itself,"[6]; PO 10 mg/kg, 2.00 hr, 10 mg/kg",below quantitative levels and BQL
same,Plasma concentration of compound IB′ itself,"[6]; PO 10 mg/kg, 4.00 hr",BQL
same,Plasma concentration of compound IB′ itself,"[6]; PO 10 mg/kg, 6.00 hr",BQL
same,Plasma concentration of compound IB′ itself,"[6]; PO 10 mg/kg, 8.00 hr",BQL
same,Plasma concentration of compound IB′ itself,"[6]; PO 10 mg/kg, 24.00 hr",BQL
same,concentration at 0.083 h,"[6]; male, Sprague Dawley, rat, plasma, IV 1 mg/kg, 0.083 hr, read-out: Plasma concentration of compound IB′ itself",430 ng/mL
same,concentration at 0.25 h,[6]; [14],82 ng/mL
same,concentration at 0.5 h,[6]; [14],24.6 ng/mL
same,concentration at 1 h,[6]; [14],9.3 ng/mL
same,concentration at 0.25 h,[6]; [15],30 ng/mL
same,concentration at 0.5 h,[6]; [15],20.4 ng/mL
same,concentration at 1 h,[6]; [15],9.3 ng/mL
same,% Remaining,[7]; 0 h,100.00%
same,% Remaining,[7]; 0.5 h,97.39%
same,% Remaining,[7]; 1 h,94.60%
same,% Remaining,[7]; 2 h,100.04%
same,% Remaining,[7]; 3 h,107.48%
same,% Remaining,[7]; 4 h,100.20%
same,% Remaining,[8]; 0 hours,100.00%
same,% Remaining,[8]; 0.5 hours,96.32%
same,% Remaining,[8]; 1 hour,88.01%
same,% Remaining,[8]; 2 hours,104.22%
same,% Remaining,[8]; 3 hours,102.59%
same,% Remaining,[8]; 4 hours,94.36%
same,% Remaining,[8]; 5 hours,100% and 100.26%
same,Bioavail.,[9],182.3 ± 20.0 % F
same,MTDacute,"[10]; single dose, dosed intravenously",15 mg/kg
same,MTDacute,"[10]; single dose, dosed orally",15 mg/kg
same,"Minor body weight loss, peak","[10]; mice, 15 mg/kg intravenous dosing group, single dose",3.3%
same,clinical observations,"[10]; mice, single dose 30 mg/kg and 45 mg/kg",Body weight loss and increased lethargy were observed
same,overt toxicity,"[10]; mice, single dose orally or intravenously at 15 mg/kg or 7.5 mg/kg",No overt toxicity was observed
same,mortality,"[10]; mice, single intravenous dose 30 mg/kg",one animal died on day three
same,mortality,"[10]; mice, single intravenous dose 45 mg/kg",two animals died on day two
same,mortality,"[10]; mice, single oral dose 30 mg/kg",one animal died on day four
same,mortality,"[10]; mice, single oral dose 45 mg/kg",one animal died on day two and one animal died on day three
same,"Body weight loss, peak",[10]; single dose intravenously,12%
same,"Body weight loss, peak","[10]; single oral dose, 30 mg/kg group",17%
same,solubility kinetic,"[11]; pH 2.2, aqueous buffer",> 1000 µg/mL
same,solubility,"[11]; pH 2.2, aqueous buffer, Solubility",1900 µg/mL
same,solubility kinetic,"[11]; pH 6.8, aqueous buffer",> 5000 µg/mL
same,solubility kinetic,"[11]; pH 8.7, aqueous buffer",> 5000 µg/mL
